Measurements from patent publication US20260364088A1, “TASL MIMICKING MOLECULES AND APPLICATIONS THEREOF” (CEMM - FORSCHUNGSZENTRUM FÜR MOLEKULARE MEDIZIN GMBH, priority 2022, published 2026).

Experiments:
IRF5 = assay: Microscopy-based IRF5 nuclear translocation assay in CAL-1 cells; conditions: human monocytic and pDC cell lines
Protocol: CAL-1, THP1 or human primary cells were incubated with dTASL1 and other identified compounds (or the corresponding volume of DMSO vehicle) for 24 h or 48 h at the indicated concentration and subsequently stimulated with R848 (5 μg/ml) for the indicated time. Supernatant or cells were recovered for ELISA, SDS-PAGE or microscopy-based analysis.
5×10^5 CAL-1 cells in 500 μl medium (wildtype, drug-treated or gene-deficient as indicated) were seeded on poly-L-lysine hydrobromide (P6282, Sigma-Aldrich)-coated coverslips in 24-well cell culture plates and immediately stimulated with 5 μg/ml R848 (Invivogen) or left unstimulated. Afterwards, medium was removed and cells were fixed with 4% formaldehyde in PBS for 15 minutes at room temperature (RT), followed by blocking and permeabilization with 5% FBS and 0.3% Triton X-100 in PBS for 1 h at RT. […]
Images were acquired on a Zeiss LSM-980 equipped with an AiryScan2 detector and processed in Zeiss ZEN version 3.6. Computational image analysis was performed with CellProfiler version 4.2.4 and data analyzed in R version 4.2.1 facilitating the following packages: ‘tidyverse’, ‘data.table’ and ‘ggpubr’. In brief nuclei and cytoplasmic regions were identified and nuclear to cytoplasmic median intensity ratios were calculated on a single cell level. […]

TASL-GFP (Homo sapiens) = assay: TASL-GFP levels in HEK293T cells co-expressing SLC15A4 (flow cytometry, microscopy); assay type: cell-based; conditions: HEK293T co-expressing SLC15A4, 10 µM, 24 h
TASL-GFP (Homo sapiens), sequence (Q8N697 whole entry): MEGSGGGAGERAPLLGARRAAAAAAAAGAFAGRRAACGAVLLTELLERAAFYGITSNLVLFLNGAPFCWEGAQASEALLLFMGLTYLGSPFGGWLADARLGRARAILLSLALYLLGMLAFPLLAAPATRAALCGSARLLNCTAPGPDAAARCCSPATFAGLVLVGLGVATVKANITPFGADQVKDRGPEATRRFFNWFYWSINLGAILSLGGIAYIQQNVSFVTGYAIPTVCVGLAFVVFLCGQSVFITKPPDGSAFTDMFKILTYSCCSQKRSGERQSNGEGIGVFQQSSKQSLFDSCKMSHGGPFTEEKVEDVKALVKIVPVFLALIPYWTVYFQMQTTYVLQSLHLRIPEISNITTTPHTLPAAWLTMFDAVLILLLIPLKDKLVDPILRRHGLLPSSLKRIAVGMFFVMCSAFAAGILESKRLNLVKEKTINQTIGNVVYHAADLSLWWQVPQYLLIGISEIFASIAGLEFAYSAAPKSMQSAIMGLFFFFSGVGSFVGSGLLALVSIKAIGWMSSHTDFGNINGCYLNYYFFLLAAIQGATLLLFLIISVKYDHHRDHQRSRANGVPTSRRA
Protocol: (§1) Cells transfected with TASL-V5 plasmid were stained for V5-tag and detected with deep red Alexa Fluor 647 secondary antibody to allow for selection in the presence of an mCherry reporter. Cells were measured either immediately after staining or in the case of live cells immediately after harvesting and washing with PBS. Data were acquired on a BD FACSCalibur (BD Biosciences) and analyzed with FlowJo software (version 10).
(§2) For live cell imaging cells were plated in PhenoPlate 96-well plates or Ibidi m-Slide 8 (Ibidi) wells at 16 k/well and incubated over-night. Then compounds were added, if indicated, and cells were imaged after 24 h of incubation. Cells were stained with LysoTracker Deep Red L12492 (ThermoFisher) and Hoechst 34580 (ThermoFisher). […] Images were analyzed with Fiji-ImageJ.
(§3) Encouraged by the fact that the chemical entity of the present invention was showing the desired behavior and specificity profile, it became important to better clarify the molecular basis of this uncommon mechanism of action, i.e interference with a highly specific protein interaction leading to degradation of a single complex component. The effect of dTASL1 on complex assembly was first monitored. […]

TASL-GFP = TASL-GFP (Homo sapiens, UniProt Q8N697); assay: as above; assay type: cell-based; conditions: HEK293T co-expressing SLC15A4, 10 µM, 24 h
TASL-GFP, sequence (Q8N697 whole entry): as above
Protocol: as §1, §2, §3

SMILES: CCOc1ccc(-c2cc(C(=O)NCCCN3CCCCC3C)c3ccccc3n2)cc1 (stereo not drawn) [dTASL1, 2-(4-ethoxyphenyl)-N-(3-(2-methylpiperidin-1-yl)propyl) quinoline-4-carboxamide]
- TLR7/8-induced IRF5 activation (IRF5): specifically impairs TLR7/8-induced IRF5 activation
- TASL-GFP levels (TASL-GFP (Homo sapiens)): reduced TASL-GFP levels
- TASL-GFP levels and localization by microscopy (TASL-GFP): a reduction of TASL-GFP levels accompanied by relocalisation
